{"source": "patent US11331354B2", "about": "“Fecal virome and therapeutic efficacy of fecal microbiota transplantation” (priority 2018, dated 2022)", "key": {"[1]": {"test_system": "Clostridium difficile infection", "experiment": "Randomised controlled trial substudy of FMT versus vancomycin in patients with CDI: clinical outcome (symptoms, stool C. difficile toxin)", "format": "in vivo, human", "description": "The current study was a substudy from a randomised controlled trial (RCT) of FMT versus vancomycin for patients with CDI. Consecutive CDI subjects enrolled into this RCT were invited to participate in a substudy of assessment of fecal microbiota. Patients were included if they had three or more loose or watery stools per day for at least two consecutive days, or eight or more soft or loose stools in 48 hours, and a positive stool test for C. difficile based on a two-step testing algorithm in the hospital, a positive GDH (glutamate dehydrogenase) screening test followed by a positive PCR test of C. difficile. A total of 24 subjects with CDI and 20 healthy household controls were recruited, and stool samples at baseline were obtained for analyses of virome and bacterial microbiome. Among them, 14 CDI subjects consented to have stool samples collected serially after treatment for microbiome analysis. Nine CDI subjects were treated with FMT and five were treated with vancomycin, and they were followed up at baseline and weeks 2, 4, 10 and 16 after treatment (FIG. 6). One patient FMT6 had recurrent CDI. This patient had five previous episodes of CDI prior to FMT. Subjects in the FMT group received 5 days of vancomycin followed by donor-infused stool via nasojejunal route, and those who had standard therapy (STD) received oral vancomycin 500 mg four times per day for 10 days. A computer-generated randomisation schedule was used to assign patients to the treatment sequences. All patients kept a stool diary and were questioned about stool frequency and consistency and medication use.\nTreatment response was defined as an absence of diarrhoea or persistent diarrhoea that could be explained by other causes with a negative stool test for C. difficile toxin, while relapse was defined as diarrhoea with a positive stool test for C. difficile toxin. Treatment cure is defined as symptom resolution and a negative Clostridium difficile toxin in stool until the last follow-up (last follow-up was referred to as the last stool collection time point, as shown in FIG. 6). […] CDI recipients FMT8 and FMT9 shared the same donor, and this donor was termed ‘D8’. None of the patients had received antibiotics or proton pump inhibitors after FMT.\n1. C. difficile infection was defined as diarrhea (≥3 soft, loose or watery stools per day for at least 2 consecutive days or ≥8 soft or loose stools in 48 hours) and a positive stool test for C. difficile toxin; and\nFamily members provided donor stool for subjects randomised to FMT arm. Cure after FMT or vancomycin therapy was defined as symptom resolution and negative Clostridium difficile toxin in stool at last follow-up by PCR assay. Relapse was defined as diarrhea with a positive stool test for C. difficile toxin.\nIn subjects who received FMT, a nasoduodenal tube was inserted with radiology guidance. Donor feces was diluted with 500 ml of sterile saline (0.9%), blended and the supernatant was strained with filter paper and poured in a sterile bottle. Within 6 hours after collection of feces by the donor, the solution was infused through a nasoduodenal tube (2 to 3 minutes per 50 ml). The tube was removed 30 minutes after the infusion, and patients were monitored for 2 hours. In subjects with received FMT, a minimum of 50 g of donor stool was collected on the same day of infusion and used within 6 hours of collection."}, "[2]": {"test_system": "enteric virome (Caudovirales, Microviridae, Anelloviridae)", "experiment": "Ultra-deep metagenomic sequencing of virus-like particle (VLP) preparations from stool: enteric virome abundance, diversity, richness, donor-derived contigs", "format": "in vivo, human", "description": "VLPs were enriched from pulverised human stool, using a protocol according to previously described methods.^11 17 VLP DNAs were quantified (NanoDrop), and 1 μg of DNA was randomly fragmented by ultrasonication (Covaris) followed by library construction. The qualified libraries were amplified on cBot to generate the cluster on the flow cell (TruSeq PE Cluster Kit V3-cBot-HS, Illumina). The amplified libraries were sequenced paired end on the HiSeq 2000 System (TruSeq SBS KIT-HS V3, Illumina) (BGI, Shenzhen, China; standard 2×150 bp run), generating 20-60 million raw sequences (5-8 G raw data) per sample (sequence statistics in Table 3). Sequence processing and quality control, de novo contig assembly and taxonomy annotation were performed.\nTo estimate contig abundance and calculate sequence diversity, all reads were aligned to the resulting contigs using Bowtie2 (V. 2.2.9).^18 The mapped sequence counts, contig lengths and total sequence counts were used to normalise the sequence counts and represent the RPKM (reads per kilobase per million) of each sample to the contigs. These values were used to generate an operational taxonomic unit (OTU) relative abundance table, which was annotated with the taxonomy described above. The virome abundance data were imported into R 3.2.3. Richness, diversity and rarefaction calculation were performed using the estimated richness function of the phyloseq package. Diversity and richness plots were generated in GraphPad Prism (V. 6.0). Spearman correlations and their significance were calculated using the cor and cor.test functions in R, respectively. […] Correlation plots were generated using the corrplot R package. Heat maps were generated using the pheatmap R package. LEfSe linear discriminant analysis and multivariate analysis were performed.\nTo establish the presence of a species or a contig within a sample, the RPKM of a contig or a species is set to be >2 (a stringent criteria), so as to rule out the false-positive finding) for the contig or the species to be assured as present within a sample. In samples after FMT, if a contig or a species was not present in the recipient baseline sample but present in the corresponding donor baseline sample and in the recipient post-FMT sample, the contig or species was defined as ‘donor-derived’; if a contig or a species was not present in the corresponding donor baseline sample but detected both in the recipient baseline sample and in the recipient post-FMT sample, the contig or the species was defined as ‘recipient-exclusive’, if a contig or a species was present across the recipient baseline sample, the recipient post-FMT sample and the corresponding donor baseline sample, the contig or the species was defined as ‘donor recipient coexisted.’ To determine the abundance alteration of Caudovirales species after FMT, the species' relative abundance (RA) fold change was defined as fc=log 2(post-FMT last follow-up RA/pre-FMT baseline RA).\nApproximately 200 mg of stool was suspended in 400 μl saline-magnesium buffer (0.1 M NaCl, 0.008 M MgSO4-7H2O, 0.002% gelatin, 0.05 M Tris pH7.5) by vortexing for 10 min. Stool suspensions were then cleared by centrifugation at 2,000×g to remove debris and cells. Clarified suspensions were passed through one […] followed by two […] filters to remove residual host and bacterial cells. […]"}}, "data": [{"smiles": "CN[C@H](CC(C)C)C(=O)N[C@H]1C(=O)N[C@@H](CC(N)=O)C(=O)N[C@H]2C(=O)N[C@H]3C(=O)N[C@H](C(=O)N[C@H](C(=O)O)c4cc(O)cc(O)c4-c4cc3ccc4O)[C@H](O)c3ccc(c(Cl)c3)Oc3cc2cc(c3O[C@@H]2O[C@H](CO)[C@@H](O)[C@H](O)[C@H]2O[C@H]2C[C@](C)(N)[C@H](O)[C@H](C)O2)Oc2ccc(cc2Cl)[C@H]1O", "note": "[vancomycin]", "values": [{"measurement": "subjects cured of CDI (responders)", "setting": "[1]; median follow-up of 16 weeks, nine FMT subjects, five vancomycin patients", "value": "three of the five"}, {"measurement": "Recurrence at week", "setting": "[1]; subject STD1", "value": "at week 12"}, {"measurement": "Outcome (till last follow-up)", "setting": "[1]; subject STD1, severe CDI, follow-up 20 weeks", "value": "Recurrence"}, {"measurement": "Recurrence at week", "setting": "[1]; subject STD2", "value": "at week 7"}, {"measurement": "Outcome (till last follow-up)", "setting": "[1]; subject STD2, moderate CDI, follow-up 7 weeks", "value": "Recurrence"}, {"measurement": "Outcome (till last follow-up)", "setting": "[1]; subject STD3, severe CDI, follow-up 14 weeks", "value": "Cured"}, {"measurement": "Outcome (till last follow-up)", "setting": "[1]; subject STD4, severe CDI, follow-up 17 weeks", "value": "Cured"}, {"measurement": "Outcome (till last follow-up)", "setting": "[1]; subject STD5, moderate CDI, follow-up 26 weeks", "value": "Cured"}, {"measurement": "virome structure over time", "setting": "[2]; CDI subjects who did not respond to vancomycin", "value": "marked oscillation"}, {"measurement": "virome structure over time", "setting": "[2]; CDI subjects who responded to vancomycin", "value": "not significantly altered"}, {"measurement": "change in Caudovirales abundance after treatment", "setting": "[2]; stool of CDI subjects, pre- versus post-treatment", "value": "increased"}, {"measurement": "Caudovirales diversity and richness as well as bacterial diversity and richness over the course of treatment", "setting": "[2]; subjects who did not respond to vancomycin (STD1 and STD2)", "value": "substantial fluctuation"}, {"measurement": "change in Caudovirales diversity or richness", "setting": "[2]; subjects who responded to vancomycin (STD3, STD4, STD5)", "value": "no significant change"}]}]}
